Measured values as given in PMC3928398, “RPEL Proteins Are the Molecular Targets for CCG-1423, an Inhibitor of Rho Signaling” (PLoS ONE, 2014).

What was measured:
Assay in all cases: pull-down with CCG-1423 Sepharose, immunoblot
Format in all cases: binding
Phactr1, Flag-Phactr1 = biological target: T1, Phactr1, Flag-Phactr1 (Rattus norvegicus, UniProt P62024); details: immobilised CCG-1423 (photo-crosslinked to Sepharose); pH 7.5, 4°C, 2 h
T1 construct: N-terminal Flag tag, pCS2+; in vitro translated in wheat germ extract, anti-Flag purified
T1 sequence (P62024 1-580): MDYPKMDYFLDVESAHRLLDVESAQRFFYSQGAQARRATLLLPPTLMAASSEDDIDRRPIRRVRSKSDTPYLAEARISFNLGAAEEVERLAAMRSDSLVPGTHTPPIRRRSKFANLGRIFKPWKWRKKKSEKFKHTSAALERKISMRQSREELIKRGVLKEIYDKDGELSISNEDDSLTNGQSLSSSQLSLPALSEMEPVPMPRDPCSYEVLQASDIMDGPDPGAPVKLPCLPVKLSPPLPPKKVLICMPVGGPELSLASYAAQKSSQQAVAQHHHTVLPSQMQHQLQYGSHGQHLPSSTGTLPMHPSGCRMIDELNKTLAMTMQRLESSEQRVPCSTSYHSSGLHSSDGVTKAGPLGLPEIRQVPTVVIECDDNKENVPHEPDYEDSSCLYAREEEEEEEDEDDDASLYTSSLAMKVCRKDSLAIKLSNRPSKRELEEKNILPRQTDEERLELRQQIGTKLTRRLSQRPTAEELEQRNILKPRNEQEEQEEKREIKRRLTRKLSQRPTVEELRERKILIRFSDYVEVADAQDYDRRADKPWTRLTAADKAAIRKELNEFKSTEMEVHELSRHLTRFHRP

[1] = biological target: T2, MRTF-A (MAL/MKL1), Flag-MRTF-A (Mus musculus, UniProt Q8K4J6); details: immobilised CCG-1423 (photo-crosslinked to Sepharose); pH 7.5, 4°C, 2 h
T2 construct: gene Mrtfa; N-terminal Flag tag, pCS2+; in vitro translated in wheat germ extract, anti-Flag purified
T2 sequence (Q8K4J6 1-964): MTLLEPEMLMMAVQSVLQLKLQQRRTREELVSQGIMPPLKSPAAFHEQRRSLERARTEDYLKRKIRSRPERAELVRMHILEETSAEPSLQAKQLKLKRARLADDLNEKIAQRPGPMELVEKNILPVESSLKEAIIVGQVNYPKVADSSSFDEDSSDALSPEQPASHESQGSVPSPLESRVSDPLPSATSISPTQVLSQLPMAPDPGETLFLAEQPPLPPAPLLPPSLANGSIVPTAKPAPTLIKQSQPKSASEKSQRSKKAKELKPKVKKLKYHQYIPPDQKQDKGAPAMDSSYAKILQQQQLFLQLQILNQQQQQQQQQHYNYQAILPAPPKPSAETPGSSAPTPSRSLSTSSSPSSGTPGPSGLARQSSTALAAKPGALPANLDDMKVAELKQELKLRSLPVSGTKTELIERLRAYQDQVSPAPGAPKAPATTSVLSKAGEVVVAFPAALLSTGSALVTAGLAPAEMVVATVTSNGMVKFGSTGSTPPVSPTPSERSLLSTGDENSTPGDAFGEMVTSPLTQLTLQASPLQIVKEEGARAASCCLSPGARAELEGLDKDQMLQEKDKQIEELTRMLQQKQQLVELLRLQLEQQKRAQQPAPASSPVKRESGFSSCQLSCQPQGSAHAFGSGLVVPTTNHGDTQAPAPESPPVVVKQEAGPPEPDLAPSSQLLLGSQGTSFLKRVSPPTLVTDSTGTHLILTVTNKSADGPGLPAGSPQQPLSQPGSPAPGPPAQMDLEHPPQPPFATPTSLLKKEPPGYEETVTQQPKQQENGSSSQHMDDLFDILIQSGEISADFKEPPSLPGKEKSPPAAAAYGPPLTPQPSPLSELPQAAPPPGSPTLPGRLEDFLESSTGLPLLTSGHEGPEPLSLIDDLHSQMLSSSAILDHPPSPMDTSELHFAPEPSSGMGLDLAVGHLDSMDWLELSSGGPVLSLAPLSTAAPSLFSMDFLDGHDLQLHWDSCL

[2] = biological target: T3, MRTF-B (MAL16/MKL2), Flag-MRTF-B (Mus musculus, UniProt P59759); details: immobilised CCG-1423 (photo-crosslinked to Sepharose); pH 7.5, 4°C, 2 h
T3 construct: gene Mrtfb; N-terminal Flag tag, pCS2+; in vitro translated in wheat germ extract, anti-Flag purified
T3 sequence (P59759 1-1080): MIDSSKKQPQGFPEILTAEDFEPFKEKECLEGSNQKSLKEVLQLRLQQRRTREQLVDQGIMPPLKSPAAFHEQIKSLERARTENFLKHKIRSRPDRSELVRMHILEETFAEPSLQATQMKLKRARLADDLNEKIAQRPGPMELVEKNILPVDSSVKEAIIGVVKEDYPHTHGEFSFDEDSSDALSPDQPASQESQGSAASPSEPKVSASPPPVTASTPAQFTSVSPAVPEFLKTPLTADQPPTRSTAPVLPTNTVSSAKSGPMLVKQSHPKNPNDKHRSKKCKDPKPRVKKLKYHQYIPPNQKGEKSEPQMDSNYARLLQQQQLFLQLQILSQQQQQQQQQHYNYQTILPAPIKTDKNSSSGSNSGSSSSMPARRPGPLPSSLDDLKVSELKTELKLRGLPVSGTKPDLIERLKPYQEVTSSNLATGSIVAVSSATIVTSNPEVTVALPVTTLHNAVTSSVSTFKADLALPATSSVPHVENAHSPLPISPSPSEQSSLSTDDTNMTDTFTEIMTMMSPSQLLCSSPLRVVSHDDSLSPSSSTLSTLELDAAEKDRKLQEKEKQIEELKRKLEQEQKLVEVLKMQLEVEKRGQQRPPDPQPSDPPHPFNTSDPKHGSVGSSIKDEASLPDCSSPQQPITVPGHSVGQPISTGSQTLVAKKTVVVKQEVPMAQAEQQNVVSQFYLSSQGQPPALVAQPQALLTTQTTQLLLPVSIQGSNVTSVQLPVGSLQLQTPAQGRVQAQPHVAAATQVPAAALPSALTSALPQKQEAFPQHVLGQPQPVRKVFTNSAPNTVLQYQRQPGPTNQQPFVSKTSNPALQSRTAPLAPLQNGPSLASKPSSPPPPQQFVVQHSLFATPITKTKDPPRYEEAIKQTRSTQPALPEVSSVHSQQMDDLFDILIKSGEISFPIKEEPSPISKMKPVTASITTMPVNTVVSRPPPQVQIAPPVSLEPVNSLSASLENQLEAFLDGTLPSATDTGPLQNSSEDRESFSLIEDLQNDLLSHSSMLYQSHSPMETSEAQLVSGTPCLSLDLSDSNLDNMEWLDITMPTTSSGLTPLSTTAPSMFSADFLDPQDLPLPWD

[3] = biological target: T3, MRTF-B (MAL16/MKL2), Flag-MRTF-B; details: immobilised CCG-1423 (photo-crosslinked to Sepharose); pH 7.5, 4°C, 2 h; remark: listed apart in the source
[4] = biological target: T2, MRTF-A (MAL/MKL1), Flag-MRTF-A; details: immobilised CCG-1423 (photo-crosslinked to Sepharose) competed by 10 µM free CCG-1423; no G-actin; pH 7.5, 4°C, 2 h; site: N-terminal basic domain (NB)
[5] = biological target: T4, Mycd (myocardin), Flag-Mycd (Mus musculus, UniProt Q8VIM5); details: immobilised CCG-1423 (photo-crosslinked to Sepharose); pH 7.5, 4°C, 2 h
T4 construct: gene Myocd; N-terminal Flag tag, pCS2+; in vitro translated in wheat germ extract, anti-Flag purified
T4 sequence (Q8VIM5 1-935): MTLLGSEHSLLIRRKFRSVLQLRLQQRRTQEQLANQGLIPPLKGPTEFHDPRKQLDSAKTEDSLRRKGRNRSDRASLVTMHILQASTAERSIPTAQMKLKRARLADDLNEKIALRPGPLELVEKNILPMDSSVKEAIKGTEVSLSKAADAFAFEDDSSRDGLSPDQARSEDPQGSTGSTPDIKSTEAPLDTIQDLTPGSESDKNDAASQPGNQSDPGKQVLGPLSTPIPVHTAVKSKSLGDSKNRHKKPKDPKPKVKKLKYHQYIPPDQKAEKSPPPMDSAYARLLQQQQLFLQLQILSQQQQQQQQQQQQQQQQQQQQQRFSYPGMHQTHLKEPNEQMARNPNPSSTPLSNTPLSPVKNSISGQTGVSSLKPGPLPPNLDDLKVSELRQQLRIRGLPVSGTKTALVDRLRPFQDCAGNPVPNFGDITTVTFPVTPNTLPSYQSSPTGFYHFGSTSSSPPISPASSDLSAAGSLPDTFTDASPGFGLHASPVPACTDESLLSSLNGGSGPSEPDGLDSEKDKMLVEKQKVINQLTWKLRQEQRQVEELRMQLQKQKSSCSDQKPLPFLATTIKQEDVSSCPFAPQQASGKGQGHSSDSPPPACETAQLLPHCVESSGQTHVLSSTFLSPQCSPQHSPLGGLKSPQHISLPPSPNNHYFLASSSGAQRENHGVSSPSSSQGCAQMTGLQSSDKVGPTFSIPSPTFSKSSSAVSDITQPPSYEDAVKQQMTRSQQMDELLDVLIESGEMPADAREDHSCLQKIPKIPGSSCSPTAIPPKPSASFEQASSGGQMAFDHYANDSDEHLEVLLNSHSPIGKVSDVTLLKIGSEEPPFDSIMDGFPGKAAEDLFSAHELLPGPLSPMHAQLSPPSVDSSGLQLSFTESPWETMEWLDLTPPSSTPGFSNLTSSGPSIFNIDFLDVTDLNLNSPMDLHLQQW

% of wild-type binding [1]: 11.2±8.5%
% of binding left with 10 μM free CCG-1423 [4]: 20.6±6.3%
SMILES: CC(ONC(=O)c1cc(C(F)(F)F)cc(C(F)(F)F)c1)C(=O)Nc1ccc(Cl)cc1 (stereo not drawn) [CCG-1423]
pull-down with CCG-1423 Sepharose, immunoblot (Phactr1, Flag-Phactr1): MRTF-B, Mycd, and Phactr1 bound to CCG-1423 Sepharose
pull-down with CCG-1423 Sepharose, immunoblot [2]: MRTF-B NBmut) to CCG-1423 Sepharose severely reduced
pull-down with CCG-1423 Sepharose, immunoblot [3]: MRTF-B, Mycd, and Phactr1 bound to CCG-1423 Sepharose
pull-down with CCG-1423 Sepharose, immunoblot [5]: MRTF-B, Mycd, and Phactr1 bound to CCG-1423 Sepharose
